Experimental data: ChEMBL document CHEMBL1201862, “PubChem BioAssay data set” (2004)
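Assay format: 96-well plates, 48-hour exposure. GI50 is the concentration that inhibits growth by half.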 The source made the active and inactive calls. Cut-off read from the data, not from the text of the source: active = GI50 up to about 1.1 µM and inactive = higher.

Assays:
Assay in all cases: growth of human tumour cells (NCI), 48 h
OVCAR-5 = test system: OVCAR-5
HOP-62 = test system: HOP-62
OVCAR-3 = test system: OVCAR-3
PC-3 = test system: PC-3
CAKI-1 = test system: CAKI-1
A498 = test system: A498
MDA-MB-231 = test system: MDA-MB-231
EKVX = test system: EKVX
LXFL 529 = test system: LXFL 529
MOLT-4 = test system: MOLT-4
RXF 393 = test system: RXF 393
KM12 = test system: KM12
SF-295 = test system: SF-295
OVCAR-8 = test system: OVCAR-8
NCI/ADR-RES = test system: NCI/ADR-RES
TK-10 = test system: TK-10
SR = test system: SR
DU-145 = test system: DU-145
HOP-18 = test system: HOP-18
NCI-H460 = test system: NCI-H460

Measured: GI50

COC(=O)NC1C(C)OC(OC2C/C=C(/C)C3C=CC4C(OC5CC(OC6CCC(OC7CC(O)C(OC8CCC(O)C(C)O8)C(C)O7)C(C)O6)C(OC(C)=O)C(C)O5)C(C)CC(C)C4C3(C)/C(O)=C3/C(=O)OC4(CC(C=O)=CC(O)C4/C=C\2C)C3=O)CC1(C)[N+](=O)[O-] (stereo not given)
active: HOP-62 767 nM | OVCAR-3 971 nM | A498 668 nM | MDA-MB-231 755 nM | LXFL 529 352 nM | MOLT-4 474 nM | RXF 393 551 nM | KM12 809 nM | SF-295 993 nM | OVCAR-8 1000 nM | SR 857 nM | NCI-H460 778 nM
inactive: OVCAR-5 1930 nM | PC-3 1570 nM | CAKI-1 2490 nM | EKVX 1850 nM | NCI/ADR-RES 6170 nM | TK-10 1610 nM | DU-145 1580 nM | HOP-18 2150 nM
